From paper PMC8954214, “Preparation, Identification, Molecular Docking Study and Protective Function on HUVECs of Novel ACE Inhibitory Peptides from Protein Hydrolysate of Skipjack Tuna Muscle” (Marine Drugs, 2022)
Like-named read-outs stand apart in the source and are kept apart here. Where a SMILES comes first, the peptide text is derived from it.

How the values were obtained:
HUVECs [1] = experiment: NO production in HUVECs; type: cell-based, human; details: 24 h; for NO level: control 34.41 ± 1.27
HUVECs [2] = experiment: ET-1 secretion of HUVECs; type: cell-based, human; details: 24 h; for ET-1 secretion: control 118.68 ± 0.53
From the text: Skipjack tuna (K. pelamis) muscle was provided by Ningbo Today Food Co., Ltd (China). Sephadex G-25 resins and NO assay kit (Nitrate reductase approach, A012-1) were purchased from Nanjing Jiancheng Bioengineering Institute (China). ET-1 ELISA Kit (HM10108) was purchased from Shanghai Qiaodu Biotechnology Co. Ltd. (China).Trypsase (≥20,000 U/g), pepsase (≥500,000 U/g), papain (≥400,000 U/g), ACE (A6778) and N-[3-(2-Furyl) acryloyl]-Phe-Gly-Gly (FAPGG, F713) were purchased from Sigma-Aldrich (Shanghai) Trading Co., Ltd. (China). […] ACEi Peptides of (TMAP1-TMAP6) with purity higher than 98% were synthesized in Shanghai Apeptide Co. Ltd. (China).
The NO and ET-1 contents of HUVECs were determined after a 24 h treatment of ACEi peptides. […] NO and ET-1 production in treated cells were measured by employing human NO and ET-1 assay kit as manufactures’ protocol, separately.

ACE [3] = target: T1, ACE (Oryctolagus cuniculus, UniProt P12822); details: cited from earlier work
T1 construct: purchased Sigma-Aldrich (Shanghai) Trading Co., Ltd. A6778
T1 sequence (P12822 34-1310): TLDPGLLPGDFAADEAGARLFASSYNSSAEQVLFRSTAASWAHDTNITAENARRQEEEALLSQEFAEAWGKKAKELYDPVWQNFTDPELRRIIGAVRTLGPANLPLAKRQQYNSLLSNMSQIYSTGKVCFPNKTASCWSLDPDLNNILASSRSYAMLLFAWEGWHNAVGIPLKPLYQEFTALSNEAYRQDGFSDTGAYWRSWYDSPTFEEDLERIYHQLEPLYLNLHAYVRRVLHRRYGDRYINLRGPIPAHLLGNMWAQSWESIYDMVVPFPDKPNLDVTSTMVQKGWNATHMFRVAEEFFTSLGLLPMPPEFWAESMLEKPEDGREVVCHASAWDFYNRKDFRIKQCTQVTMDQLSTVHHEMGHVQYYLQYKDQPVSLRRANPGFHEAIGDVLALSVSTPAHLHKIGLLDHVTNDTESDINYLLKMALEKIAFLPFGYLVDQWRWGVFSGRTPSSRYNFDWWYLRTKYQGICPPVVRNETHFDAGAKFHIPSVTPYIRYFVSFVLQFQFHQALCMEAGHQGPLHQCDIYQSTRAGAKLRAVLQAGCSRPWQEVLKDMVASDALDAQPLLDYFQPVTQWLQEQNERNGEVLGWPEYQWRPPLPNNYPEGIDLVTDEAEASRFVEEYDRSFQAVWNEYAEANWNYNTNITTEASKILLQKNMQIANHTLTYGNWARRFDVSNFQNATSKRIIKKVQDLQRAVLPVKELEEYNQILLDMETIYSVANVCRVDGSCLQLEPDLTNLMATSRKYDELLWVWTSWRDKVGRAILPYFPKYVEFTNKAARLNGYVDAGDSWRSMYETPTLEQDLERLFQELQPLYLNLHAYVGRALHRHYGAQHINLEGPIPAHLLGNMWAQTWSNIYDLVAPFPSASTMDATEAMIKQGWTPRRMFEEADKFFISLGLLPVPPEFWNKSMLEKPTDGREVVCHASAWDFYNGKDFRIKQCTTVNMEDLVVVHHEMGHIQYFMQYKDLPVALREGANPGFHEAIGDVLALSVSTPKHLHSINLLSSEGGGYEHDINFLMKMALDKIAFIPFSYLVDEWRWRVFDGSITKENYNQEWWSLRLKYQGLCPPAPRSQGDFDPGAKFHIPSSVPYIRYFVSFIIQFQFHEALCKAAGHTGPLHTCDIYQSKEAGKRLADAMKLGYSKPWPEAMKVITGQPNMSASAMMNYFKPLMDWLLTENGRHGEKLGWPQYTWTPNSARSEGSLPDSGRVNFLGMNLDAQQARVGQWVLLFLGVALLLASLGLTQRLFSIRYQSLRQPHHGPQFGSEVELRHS
From the text: Among these peptides, ACEi peptides represent a promising alternative to synthetic drugs to control hypertension. For instance, canary seed peptides (CSP) have great potential as anti-hypertensive and anti-obesity agents due to their inhibition activity on ACE and pancreatic lipase, and their non-competitive inhibitory activity was due to their destabilization of the transition state and Zn(II) coordination in ACE [13]. […] Auwal et al. illustrated that branched aliphatic or dicarboxylic amino acids (Val, Ala, Ile, and Leu) at the N-terminus could strengthen ACEi ability of peptides. Then, Val residue at the N-terminus of TMAP2 could improve its ACEi ability. […] Therefore, Ser residue, especially its hydroxyl group, should play a vital effect in the ACEi capability of ...

ACE [4] = target: T1, ACE; parameters: method as in 3 sources, ref 47 = [47]; doi:10.1016/j.lwt.2016.08.047; 47. Wang X. Chen H. Fu X. Li S. Wei J. A novel antioxidant and ACE inhibitory peptide from rice bran protein: Biochemical characterization and molecular docking study LWT-Food Sci.Technol. 2017 75 93 ||| ref 12 = [12]; PMID 31353484; doi:10.1111/jfbc.12572; 12. Fan H. Liao W. Wu J. Molecular interactions, bioavailability, and cellular mechanisms of angiotensin-converting enzyme inhibitory peptides J. Food Biochem. 2019 43 e12572 10.1111/jfbc.12572 313534 ||| ref 51 = [51]; PMID 28873590; doi:10.1016/j.foodchem.2017.06.112; 51. Abdelhedi O. Nasri R. Mora L. Jridi M. Toldra F. Nasri M. In silico analysis and molecular docking study of angiotensin I-converting enzyme inhibitory peptides from smooth-hound viscera protein hy; details: docking; cited from earlier work
ACE N-domain = tested on: ACE N-domain; parameters: method as in PMID 33340899; details: docking; cited from earlier work
ACE C-domain = tested on: ACE C-domain; parameters: method as in PMID 33340899; details: docking; cited from earlier work
[5] = target: T2, angiotensin-I-converting enzyme (ACE) (UniProt P12822)
T2 sequence: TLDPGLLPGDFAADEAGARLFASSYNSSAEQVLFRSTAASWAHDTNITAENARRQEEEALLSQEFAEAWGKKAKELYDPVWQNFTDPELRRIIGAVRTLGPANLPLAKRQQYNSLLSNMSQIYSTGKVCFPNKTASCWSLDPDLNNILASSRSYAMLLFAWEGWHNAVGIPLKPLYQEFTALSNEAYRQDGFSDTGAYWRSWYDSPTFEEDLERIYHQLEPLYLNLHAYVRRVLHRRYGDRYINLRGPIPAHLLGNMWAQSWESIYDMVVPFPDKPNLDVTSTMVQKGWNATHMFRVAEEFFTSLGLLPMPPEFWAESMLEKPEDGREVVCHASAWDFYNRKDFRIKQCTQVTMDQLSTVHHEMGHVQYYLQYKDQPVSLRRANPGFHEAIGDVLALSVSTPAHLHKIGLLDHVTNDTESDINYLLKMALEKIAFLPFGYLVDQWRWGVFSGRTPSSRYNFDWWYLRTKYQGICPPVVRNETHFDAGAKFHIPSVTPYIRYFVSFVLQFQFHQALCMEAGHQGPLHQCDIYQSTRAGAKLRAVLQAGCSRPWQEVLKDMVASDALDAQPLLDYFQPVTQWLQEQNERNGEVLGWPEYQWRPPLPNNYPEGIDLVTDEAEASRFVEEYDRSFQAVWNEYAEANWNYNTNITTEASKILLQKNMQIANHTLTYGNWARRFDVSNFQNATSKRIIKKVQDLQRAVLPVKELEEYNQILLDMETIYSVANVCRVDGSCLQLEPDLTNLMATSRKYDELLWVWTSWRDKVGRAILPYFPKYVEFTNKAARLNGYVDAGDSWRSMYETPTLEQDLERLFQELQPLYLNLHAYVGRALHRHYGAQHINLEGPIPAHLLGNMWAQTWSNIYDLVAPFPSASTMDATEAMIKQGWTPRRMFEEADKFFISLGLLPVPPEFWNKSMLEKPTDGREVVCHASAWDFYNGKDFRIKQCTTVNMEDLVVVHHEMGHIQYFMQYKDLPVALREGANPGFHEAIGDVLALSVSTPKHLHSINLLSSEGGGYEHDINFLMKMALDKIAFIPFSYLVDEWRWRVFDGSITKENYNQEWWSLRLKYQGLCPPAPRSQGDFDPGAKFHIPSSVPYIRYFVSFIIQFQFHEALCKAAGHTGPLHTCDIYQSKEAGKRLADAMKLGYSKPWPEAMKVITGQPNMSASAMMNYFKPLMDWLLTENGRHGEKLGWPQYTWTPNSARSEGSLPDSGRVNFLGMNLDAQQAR

Work on `C[C@H](CS)C(=O)N1CCC[C@H]1C(=O)O` [Cap, captopril] yielded an NO level (HUVECs [1]; Cap positive control (1 μM per method), p < 0.001) of 65.96 ± 1.83 μmol/gprot and an ET-1 secretion (HUVECs [2]; 0.5 μM Cap, p < 0.001) of 84.16 ± 1.18 pg/mL.

For `NC[C@H](O)c1ccc(O)c(O)c1` [NE, norepinephrine], the NO level (HUVECs [1]; NE 0.5 μM, p < 0.001) was 24.25 ± 0.63 μmol/gprot and the ET-1 secretion (HUVECs [2]; NE 0.5 μM, p < 0.01) was 140.23 ± 5.81 pg/mL.

With `N[C@@H](CO)C(=O)N1CCC[C@H]1C(=O)O` [TMAP1, Ser-Pro] (H-Ser-Pro-OH) the “reversal of NE-reduced NO content” value (HUVECs [1]; 200 μM peptide with NE (0.5 μM), p < 0.001 vs NE) was “partially offset”, the NO level (HUVECs [1]; 400 μM, p < 0.001) was 57.25 ± 2.31 μmol/gprot and the “NO level vs control group” value (HUVECs [1]; 100, 200 and 400 μM, p < 0.001) was “significantly increased”. For the same molecule, the “ET-1 secretion with NE” value (HUVECs [2]; 200 μM peptide with NE (0.5 μM), NE alone 140.23 ± 5.81, p < 0.01) was 114.08 ± 5.82 pg/mL, the ET-1 secretion (HUVECs [2]; 400 μM) was 94.86 ± 0.39 pg/mL and the “ET-1 secretion vs control group” value (HUVECs [2]; tested concentrations (100–400 μM), p < 0.001 or p < 0.01) was “decreased”.

In the case of “AGPPGSDGQPGA [ACEi peptide from lizardfish]”, the IC50 (ACE [3]; lizardfish peptide) is listed as 544 µg/mL.

In the case of “ALPMHIR [larger peptide composed of 7–11 amino acid residues]”, the “interaction with ACE channel / active site” value (ACE [4]) is given as “showed low interaction scores”.

In the case of “AVVPPSDKM [larger peptide composed of 7–11 amino acid residues]”, the “interaction with ACE channel / active site” value (ACE [4]) is listed as “showed low interaction scores”.

For EHPVL [ACEi peptide from stone fish], the IC50 (ACE [3]; stone fish peptides) is listed as 1680 µM.

For EVLIQ [ACEi peptide from stone fish], the IC50 (ACE [3]; stone fish peptides) is listed as 1440 µM.

In the case of “GPAGPRGPAG [larger peptide composed of 7–11 amino acid residues]”, the “interaction with ACE channel / active site” value (ACE [4]) is given as “showed low interaction scores”.

For “HWTTQR [ACEi peptide from seaweed pipefish]”, the IC50 (ACE [3]; seaweed pipefish peptide) is listed as 1440 µM.

For LAPPTM [ACEi peptide from stone fish], the IC50 (ACE [3]; stone fish peptides) is given as 1310 µM.

For LGPLGHQ [ACEi peptide from skate], the IC50 (ACE [3]; skate peptides) is given as 4.22 µM.

For LVLL [literature peptide docked to ACE], the N-domain affinity (ACE N-domain) is given as -7.5 kcal/mol and the C-domain affinity (ACE C-domain) is given as -8.6 kcal/mol.

In the case of MVGSAPGVL [ACEi peptide from skate], the IC50 (ACE [3]; skate peptides) is listed as 3.09 µM.

In the case of Phe-Glu-Met (FEM) (peptide), the IC50 of ACE inhibitory (ACEi) activity; enzyme assay with FAPGG as substrate, Tris-HCl 50 mM pH 8.3, 300 mM NaCl, 37 °C, product measured by HPLC [5] is reported as 2.18 mg/mL.

For SPRCR [ACEi peptide with Ser residue], the IC50 (ACE [3]) is listed as 41 µM.

For Ser-Pro (SP) (peptide), the IC50 of ACE inhibitory (ACEi) activity; enzyme assay with FAPGG as substrate, Tris-HCl 50 mM pH 8.3, 300 mM NaCl, 37 °C, product measured by HPLC [5] was 0.06 mg/mL.

In the case of “TTMYPGIA [larger peptide composed of 7–11 amino acid residues]”, the “interaction with ACE channel / active site” value (ACE [4]) is given as “showed low interaction scores”.

In the case of Tyr-Glu (YE) (peptide), the IC50 of ACE inhibitory (ACEi) activity; enzyme assay with FAPGG as substrate, Tris-HCl 50 mM pH 8.3, 300 mM NaCl, 37 °C, product measured by HPLC [5] is reported as 0.8 mg/mL.

For “VKPLPQSG [larger peptide composed of 7–11 amino acid residues]”, the “interaction with ACE channel / active site” value (ACE [4]) is given as “showed low interaction scores”.

In the case of VSQLTR [ACEi peptide with Ser residue], the IC50 (ACE [3]) is given as 105 µM.

For YVVF [literature peptide docked to ACE], the N-domain affinity (ACE N-domain) is given as -8.8 kcal/mol and the C-domain affinity (ACE C-domain) is given as -9.8 kcal/mol.

VHGVV [Val-His-Gly-Val-Val (VHGVV)] gave an IC50 of ACE inhibitory (ACEi) activity; enzyme assay with FAPGG as substrate, Tris-HCl 50 mM pH 8.3, 300 mM NaCl, 37 °C, product measured by HPLC [5] of 0.9 mg/mL.

FWRV [Phe-Trp-Arg-Val (FWRV)] gave an IC50 of ACE inhibitory (ACEi) activity; enzyme assay with FAPGG as substrate, Tris-HCl 50 mM pH 8.3, 300 mM NaCl, 37 °C, product measured by HPLC [5] of 0.76 mg/mL.

VDRYF [Val-Asp-Arg-Tyr-Phe (VDRYF)] gave an IC50 of ACE inhibitory (ACEi) activity; enzyme assay with FAPGG as substrate, Tris-HCl 50 mM pH 8.3, 300 mM NaCl, 37 °C, product measured by HPLC [5] of 0.28 mg/mL.
